Measurements taken from US20060134204A1, “Complexes made using low solubility drugs” (priority 2004, published 2006).

Experiment: Crystallinity of the complex by powder X-ray diffraction (XRD)
Type: physicochemical
Settings: PANalytical X'Pert Pro, percent crystallinity
From the text: “Crystallinity” means the degree to which a chemical entity is present in a crystalline form. This degree can be expressed in units such as percent crystallinity. X-Ray diffraction (“XRD”) techniques can be used to determine crystallinity of substances, including inventive substances. From an XRD spectra, the percent crystallinity may be calculated as: Percent crystallinity=(sum of net intensity)/(sum of observed intensity) where the sum of net intensity=integrated area of peak intensity above the baseline, and sum of observed intensity=integrated area of total peak intensity including sum of net intensity and integrated area under baseline. Additional information about use of XRD to determine percent crystallinity may be found in R. Jenkins et al., Introduction to X-Ray Powder Diffractometry, John Wiley & Sonds, Inc. (1996). Qualitative determination of crystallinity of the complex of Example 1 was conducted with PANalytical X'Pert Pro Powder X-ray Diffraction (XRD) System. […] The crystallinity of sodium lauryl sulfate was determined to be 32%, and the crystallinity of the physical mixture was determined to be 50%.

SMILES | crystallinity [%]
OCCC#Cc1nc(-c2ccc(F)cc2)c(-c2ccncc2)n1CCCc1ccccc1 [4-(4-Fluorophenyl)-2-(4-hydroxy-1-butynyl)-1-(3-phenylpropyl)-5-(4-pyridyl)imidazole] | 63
CCCCCCCCCCCCOS(=O)(=O)[O-].[Na+] [sodium lauryl sulfate] | 32
